Measured values as given in ChEMBL document CHEMBL3797052 (Eur J Med Chem, 2016).

Test system: not listed separately
Assay: Antiproliferative activity against human SF539 cells assessed as cell growth at 10^-6 M after 48 hrs by sulforhodamine B assay
Format: functional
Settings: SF-539, 48 h, read-out: Activity

With `CNC(=O)c1cc(Oc2ccc3nc(NC(=O)Nc4cc(C(F)(F)F)cc(C(F)(F)F)c4)sc3c2)ccn1` as the compound, how does the growth at 1 µM read?
The growth at 1 µM was 63%.

Test system: not listed separately
Assay: Antiproliferative activity against human DU145 cells assessed as cell growth at 10^-4 M after 48 hrs by sulforhodamine B assay
Format: functional
Settings: DU-145, 48 h, read-out: Activity

For `CNC(=O)c1cc(Oc2ccc3nc(NC(=O)Nc4cc(C(F)(F)F)cc(C(F)(F)F)c4)sc3c2)ccn1`, which growth at 100 µM is on record?
Its growth at 100 µM is -89%.

Test system: SK-MEL-2
Assay: Antiproliferative activity against human SK-MEL-2 cells assessed as cell growth at 10^-7 M after 48 hrs by sulforhodamine B assay
Format: functional
Settings: SK-MEL-2, 48 h, read-out: Activity

With `CNC(=O)c1cc(Oc2ccc3nc(NC(=O)Nc4cc(C(F)(F)F)cc(C(F)(F)F)c4)sc3c2)ccn1` as the compound, how does the growth at 0.1 µM read?
The growth at 0.1 µM was 97%.

Test system: not listed separately
Assay: Antiproliferative activity against human IGROV1 cells assessed as cell growth at 10^-4 M after 48 hrs by sulforhodamine B assay
Format: functional
Settings: IGROV-1, 48 h, read-out: Activity

With `CNC(=O)c1cc(Oc2ccc3nc(NC(=O)Nc4cc(C(F)(F)F)cc(C(F)(F)F)c4)sc3c2)ccn1` as the compound, how does the growth at 100 µM read?
The growth at 100 µM was -60%.

Test system: not listed separately
Assay: Antiproliferative activity against human Caki1 cells assessed as cell growth at 10^-8 M after 48 hrs by sulforhodamine B assay
Format: functional
Settings: CAKI-1, 48 h, read-out: Activity

Which growth at 0.01 µM does the source give for `CNC(=O)c1cc(Oc2ccc3nc(NC(=O)Nc4cc(C(F)(F)F)cc(C(F)(F)F)c4)sc3c2)ccn1` here?
The growth at 0.01 µM was 91%.

Test system: CCRF-CEM
Assay: Antiproliferative activity against human CCRF-CEM cells assessed as cell growth at 10^-8 M after 48 hrs by sulforhodamine B assay
Format: functional
Settings: read-out: Activity

With `CNC(=O)c1cc(Oc2ccc3nc(NC(=O)Nc4cc(C(F)(F)F)cc(C(F)(F)F)c4)sc3c2)ccn1` as the compound, how does the growth at 0.01 µM read?
The growth at 0.01 µM was 111%.

Test system: A498
Assay: Antiproliferative activity against human A498 cells assessed as cell growth at 10^-7 M after 48 hrs by sulforhodamine B assay
Format: functional
Settings: A498, 48 h, read-out: Activity

Which growth at 0.1 µM does the source give for `CNC(=O)c1cc(Oc2ccc3nc(NC(=O)Nc4cc(C(F)(F)F)cc(C(F)(F)F)c4)sc3c2)ccn1` here?
Its growth at 0.1 µM is 111%.

Test system: MDA-MB-231
Assay: Antiproliferative activity against human MDA-MB-231 cells assessed as cell growth at 10^-7 M after 48 hrs by sulforhodamine B assay
Format: functional
Settings: MDA-MB-231, 48 h, read-out: Activity

For `CNC(=O)c1cc(Oc2ccc3nc(NC(=O)Nc4cc(C(F)(F)F)cc(C(F)(F)F)c4)sc3c2)ccn1`, which growth at 0.1 µM is on record?
Its growth at 0.1 µM is 98%.

Test system: A498
Assay: Antiproliferative activity against human A498 cells assessed as cell growth at 10^-4 M after 48 hrs by sulforhodamine B assay
Format: functional
Settings: A498, 48 h, read-out: Activity

For `CNC(=O)c1cc(Oc2ccc3nc(NC(=O)Nc4cc(C(F)(F)F)cc(C(F)(F)F)c4)sc3c2)ccn1`, which growth at 100 µM is on record?
Its growth at 100 µM is -93%.

Test system: not listed separately
Assay: Antiproliferative activity against human HL-60(TB) cells assessed as growth inhibition after 48 hrs by sulforhodamine B assay
Format: functional
Settings: HL-60, 48 h

What does the source list for `CNC(=O)c1cc(Oc2ccc3nc(NC(=O)Nc4cc(C(F)(F)F)cc(C(F)(F)F)c4)sc3c2)ccn1`?
GI50: 1.6 µM; TGI: 4.17 µM

Same assay, conditions: HL-60, 48 h, read-out: LC50 (the source's name)

With `CNC(=O)c1cc(Oc2ccc3nc(NC(=O)Nc4cc(C(F)(F)F)cc(C(F)(F)F)c4)sc3c2)ccn1` as the compound, how does the CC50 read?
The CC50 was 20.4 µM.

Test system: KM12
Assay: Antiproliferative activity against human KM12 cells assessed as cell growth at 10^-8 M after 48 hrs by sulforhodamine B assay
Format: functional
Settings: KM12, 48 h, read-out: Activity

For `CNC(=O)c1cc(Oc2ccc3nc(NC(=O)Nc4cc(C(F)(F)F)cc(C(F)(F)F)c4)sc3c2)ccn1`, which growth at 0.01 µM is on record?
Its growth at 0.01 µM is 100%.

Target: CYP2D6 (Homo sapiens, UniProt P10635)
Sequence (P10635 whole entry): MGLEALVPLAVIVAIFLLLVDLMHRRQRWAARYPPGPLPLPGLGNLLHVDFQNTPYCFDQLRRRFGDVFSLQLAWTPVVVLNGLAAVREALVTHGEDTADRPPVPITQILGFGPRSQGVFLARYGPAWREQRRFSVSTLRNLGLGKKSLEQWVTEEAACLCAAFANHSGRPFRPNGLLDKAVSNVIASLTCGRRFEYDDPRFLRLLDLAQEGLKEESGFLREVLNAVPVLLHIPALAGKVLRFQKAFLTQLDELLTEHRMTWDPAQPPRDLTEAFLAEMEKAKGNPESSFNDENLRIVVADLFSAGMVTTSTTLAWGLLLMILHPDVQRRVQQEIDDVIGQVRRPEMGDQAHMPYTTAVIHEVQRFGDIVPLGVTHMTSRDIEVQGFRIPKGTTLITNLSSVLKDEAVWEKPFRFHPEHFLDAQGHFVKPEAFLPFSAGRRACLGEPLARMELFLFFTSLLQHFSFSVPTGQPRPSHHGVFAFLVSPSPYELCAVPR
Assay: Inhibition of recombinant human CYP2D6 assessed as remaining enzyme activity using CYP2D6 blue as substrate at 10 uM after 5 mins in presence of NADP by fluorescence plate reader analysis
Format: ADME
Settings: recombinant human CYP2D6, probe CYP2D6 blue, read-out: Activity

Which activity at 5 min, 10 µM does the source give for `CNC(=O)c1cc(Oc2ccc3nc(NC(=O)Nc4cc(C(F)(F)F)cc(C(F)(F)F)c4)sc3c2)ccn1` here?
Its activity at 5 min, 10 µM is 91.5%.

Test system: not listed separately
Assay: Antiproliferative activity against human OVCAR8 cells assessed as growth inhibition after 48 hrs by sulforhodamine B assay
Format: functional
Settings: OVCAR-8, 48 h

Which GI50 does the source give for `CNC(=O)c1cc(Oc2ccc3nc(NC(=O)Nc4cc(C(F)(F)F)cc(C(F)(F)F)c4)sc3c2)ccn1` here?
The GI50 was 1.33 µM.

And the LC50?
Its LC50 is 5.47 µM.

And the TGI?
Its TGI is 2.69 µM.

Test system: not listed separately
Assay: Antiproliferative activity against human HOP62 cells assessed as cell growth at 10^-8 M after 48 hrs by sulforhodamine B assay
Format: functional
Settings: HOP-62, 48 h, read-out: Activity

With `CNC(=O)c1cc(Oc2ccc3nc(NC(=O)Nc4cc(C(F)(F)F)cc(C(F)(F)F)c4)sc3c2)ccn1` as the compound, how does the growth at 0.01 µM read?
The growth at 0.01 µM was 85%.

Test system: MCF7
Assay: Antiproliferative activity against human MCF7 cells assessed as cell growth at 10^-4 M after 48 hrs by sulforhodamine B assay
Format: functional
Settings: MCF7, 48 h, read-out: Activity

With `CNC(=O)c1cc(Oc2ccc3nc(NC(=O)Nc4cc(C(F)(F)F)cc(C(F)(F)F)c4)sc3c2)ccn1` as the compound, how does the growth at 100 µM read?
The growth at 100 µM was -55%.

Test system: not listed separately
Assay: Antiproliferative activity against human Hs 578T cells assessed as cell growth at 10^-6 M after 48 hrs by sulforhodamine B assay
Format: functional
Settings: read-out: Activity

With `CNC(=O)c1cc(Oc2ccc3nc(NC(=O)Nc4cc(C(F)(F)F)cc(C(F)(F)F)c4)sc3c2)ccn1` as the compound, how does the growth at 1 µM read?
Its growth at 1 µM is 73%.

Test system: NCI-H226
Assay: Antiproliferative activity against human NCI-H226 cells assessed as cell growth at 10^-4 M after 48 hrs by sulforhodamine B assay
Format: functional
Settings: NCI-H226, 48 h, read-out: Activity

For `CNC(=O)c1cc(Oc2ccc3nc(NC(=O)Nc4cc(C(F)(F)F)cc(C(F)(F)F)c4)sc3c2)ccn1`, which growth at 100 µM is on record?
The growth at 100 µM was -52%.

Test system: SR
Assay: Antiproliferative activity against human SR cells assessed as cell growth at 10^-6 M after 48 hrs by sulforhodamine B assay
Format: functional
Settings: read-out: Activity

Which growth at 1 µM does the source give for `CNC(=O)c1cc(Oc2ccc3nc(NC(=O)Nc4cc(C(F)(F)F)cc(C(F)(F)F)c4)sc3c2)ccn1` here?
Its growth at 1 µM is 34%.

Test system: NCI-H460
Assay: Antiproliferative activity against human NCI-H460 cells assessed as cell growth at 10^-7 M after 48 hrs by sulforhodamine B assay
Format: functional
Settings: NCI-H460, 48 h, read-out: Activity

Which growth at 0.1 µM does the source give for `CNC(=O)c1cc(Oc2ccc3nc(NC(=O)Nc4cc(C(F)(F)F)cc(C(F)(F)F)c4)sc3c2)ccn1` here?
Its growth at 0.1 µM is 108%.
